Source: patent US8236984B2, “Compound and use thereof in the treatment of amyloidosis” (Pentraxin Therapeutics Ltd., priority 2007, dated 2012)

Legend:
[1] = target: T1, L55P variant transthyretin (Homo sapiens, UniProt P02766, L75P); assay: Mass spectrometric analysis of subunit exchange; format: biochemical; design: made in house; conditions: L55P variant, decreasing molar ratios of ligand
Method: 4.2 Mass spectrometric analysis of subunit exchange. Recombinant wild type, L55P and V30M transthyretin variants were biosynthetically labelled with isotopes [^15N] and [^15N, ^13C] as previously described (Keetch C A et al, 2005). Immediately prior to analysis, proteins were buffer exchanged into 20 mM ammonium acetate, pH 7.0 using Micro Biospin columns (Bio-Rad, UK). The subunit composition of transthyretin was monitored as a function of time by incubating an equimolar solution (4.4 μM) of [^15N] and [^15N, ^13C] labelled proteins in the presence of 2-fold molar excess of 4ajm15 in DMSO or 2.5% DMSO alone as a control. Each experiment was carried out in triplicate at room temperature and at 4° C. as well, since it is known that subunit exchange is accelerated at low temperatures. Nanoflow ESMS was performed on a QToF2 instrument (Waters/Micromass UK, Ltd.) modified for high mass operation (Sobott et al, (2002)) and calibrated externally using caesium iodide (100 mg/ml). Each solution, 1.5 μl, was electrosprayed from gold coated borosilicate capillaries prepared in-house as described (Nettleton E J, et al, 1998). To preserve the non-covalent interactions in the transthyretin tetramer, the MS parameters applied were: capillary voltage 1.6 kV, sample cone 160 V, extractor cone 20 V, ion transfer stage pressure 7.0×10 ^−3 mbar, quadrupole analyzer pressure 9.5×10^−4 mbar and ToF analyzer pressure 1.7×10^−6 mbar. Data were processed with MassLynx software (Waters/Micromass UK, Ltd.) and are presented with minimal smoothing and without background subtraction.
This most unstable transthyretin variant rapidly undergoes spontaneous and extensive subunit exchange, as illustrated in FIG. 8. FIGS. 9-11 show the effects of decreasing molar ratios of mds84 on inhibition of subunit exchange. […] At lower molar ratios of mds84 some exchange takes place but the transthyretin molecules which bind mds84 are still completely stabilized.

wild type transthyretin [2] = target: T2, wild type transthyretin (Homo sapiens, UniProt P02766); assay: Inhibition of transthyretin aggregation at acidic pH (turbidity at 400 nm); format: biochemical; design: isolated from pooled normal human plasma, was obtained from Scipac; purchased Scipac Ltd, Sittingbourne, Kent, UK; host or cells: pooled normal human plasma; conditions: wild type 3.6 μM, pH 4.4, 3 d 37° C.; for Aggregation of transthyretin, Mean (1:1): ligand 3.6 μM; for Aggregation of transthyretin, Mean (3:1): ligand 10.8 μM
Method: 3.3.1 Wild type transthyretin. The purified wild type transthyretin (liquid and lyophilised) used in these experiments, isolated from pooled normal human plasma, was obtained from Scipac, (Sittingbourne, Kent, UK). Protein concentration was determined by absorbance at 280 nm after correction for light scattering at 320 nm using the absorption coefficient E1 cm^1%=14.0. […] Nano electrospray ionisation mass spectrometry confirmed the presence of normal and cysteinylated transthyretin monomers (Terazaki et al, 1998) under denaturing conditions, and solvent-bound transthyretin tetramer (Nettleton et al, 1998) under mild desolvation conditions.
(§1) 3.3.2 Inhibition of transthyretin aggregation by 4ajm15: In pilot experiments, transthyretin aggregates were formed from wild type transthyretin (3.6 μM) after incubation at acidic pH for 3 d at 37° C. (Colon and Kelly, 1992). The efficacy of 4ajm15 as an inhibitor of transthyretin aggregate formation was then compared with other transthyretin ligand compounds. […] After 30 min at 37° C., the pH was adjusted to pH 4.4 (with 0.2 M sodium acetate buffer pH 4.0), and the ˜1 ml mixtures were incubated unstirred for 3 d at 37° C.
(§2) Using the same method the activities of mds84 and 4ajm15 as inhibitors of the aggregation of both wild type transthyretin and the most aggressively aggregating transthyretin variant, L55P, were evaluated in triplicate with both proteins at 3.6 μM and with one (3.6 μM) or 3 equivalents (10.8 μM) of each ligand. Wild type transthyretin was studied at pH 4.4 and L55P at pH 5.0. […] Mean values and standard deviations are shown in Table 2 and in FIG. 4, where results with 1:1 molar ratio are shown cross hatched and 3:1 molar ratio in open bars.

[3] = target: T1, L55P variant transthyretin; assay: Differential scanning calorimetry of transthyretin with ligand; format: binding; conditions: five fold molar excess of ligand
wild type transthyretin [4] = target: T2, wild type transthyretin; assay: as above; format: binding; design: isolated from pooled normal human plasma, was obtained from Scipac; purchased Scipac Ltd, Sittingbourne, Kent, UK; host or cells: pooled normal human plasma; conditions: five fold molar excess of ligand
[5] = target: T1, L55P variant transthyretin; assay: Inhibition of transthyretin aggregation at acidic pH (turbidity at 400 nm); format: biochemical; conditions: L55P 3.6 μM, pH 5.0; for Aggregation of transthyretin, Mean (1:1): ligand 3.6 μM; for Aggregation of transthyretin, Mean (3:1): ligand 10.8 μM
Method: as §1, §2

transthyretin = target: T3, transthyretin (Homo sapiens, UniProt P02766); assay: Intrinsic fluorescence quenching of transthyretin by ligand titration; format: binding; conditions: 1 μM transthyretin, PBS pH 7.4, ligand 0-2 μM, excitation 280 nm, 20° C.
T3 construct: Native tetrameric transthyretin was purified from fractionated human plasma; from tissue; host or cells: human plasma
Method: 3.2.1. Binding of 4ajm15 and mds84 by transthyretin. The interactions between the ligands 4ajm15 or mds84 and transthyretin were studied by monitoring intrinsic fluorescence in the emission range 300-500 nm on excitation at 280 nm using a Perkin Elmer LS55 fluorimeter and a standard 1 cm path length quartz cell at 20° C. Quenching of tryptophan was achieved by titrating 1 μM transthyretin in PBS, pH 7.4 with increasing concentrations of each ligand in the range 0-2 μM (FIG. 2A). […] At the same time the changes in 4ajm15 fluorescence upon binding to the protein were monitored in the emission range 400-600 nm and excitation at 340 nm that is the wavelength specific for 4ajm15 excitation. In these conditions, accumulation of the spectra highlights an isosbestic point at 483 nm (FIG. 2B). The same results were achieved by using mds84 (not shown). The results of the titration of 4ajm15 in presence and absence of transthyretin support a model of binding in which both the binding sites are simultaneously occupied by the palindromic ligand.
In each case increasing concentrations of ligand (0-2 μM) were added to 1 μM protein. The arrow in FIG. 2B indicates the isosbestic point at 483 nm occurring on formation of the protein ligand complex. […] The percent quenching represents ΔF/F0 where F0 is fluorescence intensity prior to the addition of ligands and AF is the decrease in fluorescence at a given ligand concentration.

Structure (SMILES) | ligand bound per mole of transthyretin for complete stabilization [1] | Aggregation of transthyretin, Mean (1:1) (wild type transthyretin [2]) | Aggregation of transthyretin, Mean (3:1) (wild type transthyretin [2]) | Tm of L55P variant transthyretin with the ligand [3] [°C] | increase in Tm of L55P variant transthyretin [3] [°C] | Tm of wild type transthyretin with the ligand (wild type transthyretin [4]) [°C] | increase in Tm of wild type transthyretin (wild type transthyretin [4]) [°C] | Aggregation of transthyretin, Mean (1:1) [5] | Aggregation of transthyretin, Mean (3:1) [5] | intrinsic fluorescence of transthyretin remaining after titration (transthyretin) [%]
O=C(O)c1ccc2nc(-c3cc(Cl)cc(Cl)c3)oc2c1 [Fx-1006A, 2-(3,5-dichlorophenyl)benzo oxazole-6-carboxylic acid, reference compound] | two moles | 12.5 per cent of control with DMSO alone | 1.14 per cent of control with DMSO alone | 98.3 | 3.7 | 104.9 | 4.6 | 32 per cent of control with DMSO alone | 16.8 per cent of control with DMSO alone | 
N[C@@H](Cc1cc(I)c(Oc2cc(I)c(O)c(I)c2)c(I)c1)C(=O)O [T4, 3,5,3′,5′-Tetraiodo-L-Thyronine, reference compound] |  | 25 per cent of control with DMSO alone | 1.2 per cent of control with DMSO alone |  |  |  |  | 55 per cent of control with DMSO alone | 22 per cent of control with DMSO alone | 60
